Measurements from patent publication US12226395B2, “Composition for preventing or treating neurodegenerative diseases, containing diterpene-based compound” (KOREA RESEARCH INSTITUTE OF BIOSCIENCE AND BIOTECHNOLOGY, priority 2017, dated 2025).
Where two headings read alike, the source gives them in different places.

How the values were obtained:
Type in all cases: cell-based
Nurr1 [1] = target: T1, Nurr1 (Homo sapiens, UniProt P43354); test: Nurr1 activity, luciferase reporter analysis in transfected BE(2)C cells; settings: for Nurr1 activity (luciferase), multiple of 0.1% DMSO control: BE(2)C cells, 20 hours; for Nurr1 activation (in words): no concentration stated
T1 construct: 3 types of plasmid DNA, including DNA containing Nurr1-LBD and DNA with β-galactosidase, were transfected into BE(2)C cells; expressed in transfected cells; host or cells: BE(2)C cells
Excerpt: As in Example 2, Nurr1 activity according to the concentration of the diterpene isolated from the extract of Daphne genkwa was confirmed through luciferase analysis.
Specifically, after synthesizing a vector in which the gene having the nucleotide sequence (5′-CTCGGAGGACAGTACTCCG-3 SEQ ID NO:1) to which the GLA4 gene can bind is repeated 8 times to the reporter gene, luciferase, is synthesized, 3 types of plasmid DNA, including DNA containing Nurr1-LBD and DNA with β-galactosidase, were transfected into BE(2)C cells. After 6 hours, the compounds 1 to 10 separated in Example 2 were treated according to the concentrations in Table 1 below. The cells thus treated were cultured in a 5% carbon dioxide incubator at 37° C. for 20 hours, and then luciferase analysis was performed. As a control, 0.1% DMSO was used, and at this time, the activity was increased by multiple, and Amodiaquine was used as a positive control.

[2] = tested on: nitric oxide production in microglia BV-2 cells; test: Inhibition of nitric oxide production in LPS-treated microglia BV-2 cells (Griess reagent); settings: for Inhibition of nitric oxide production (in words): microglia BV-2 cells
Excerpt: The death of cranial nerve cells due to an inflammatory reaction in a microglia cell has been reported as one of the main causes of degenerative brain diseases such as dementia and Parkinson's disease. (Sarkar S et al., Neurotoxicology, 44, 250-262 (2014); Bower J H et al., Neurology, 67, 494-496 (2006)). Accordingly, the inhibition activity on nitric oxide production, a representative inflammatory factor, was investigated for the compounds isolated from Example 2 in a microglia. Specifically, microglia BV-2 cells were put into a 96-well plate at 5×10^4 cells/well, and cultured for 2 days, followed by incubation with LPS ([…]) for 24 hours with the compound isolated in Example 2 above. The culture supernatant was measured for absorbance at 540 nm using the Griess reagent to quantify nitrite to investigate the amount of nitric oxide production. Minocyline was used as a positive control.

Nurr1 [3] = target: T1, Nurr1; test: Nurr1 activity, luciferase reporter analysis in transfected BE(2)C cells
[4] = BV-2 cells, LPS 24 hours, nitrite by Griess reagent, read-out: IC50, inhibition of nitric oxide production (Table 5)

T1 sequence (P43354 360-595 limits assumed): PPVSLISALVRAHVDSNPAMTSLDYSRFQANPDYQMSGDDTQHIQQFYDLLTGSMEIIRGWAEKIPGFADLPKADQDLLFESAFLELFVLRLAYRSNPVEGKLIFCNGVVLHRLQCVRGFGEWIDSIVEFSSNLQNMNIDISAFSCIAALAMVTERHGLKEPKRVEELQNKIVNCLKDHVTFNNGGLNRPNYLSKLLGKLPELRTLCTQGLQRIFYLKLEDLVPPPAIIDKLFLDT

Row | Compound | Nurr1 activity (luciferase), multiple of 0.1% DMSO control (Nurr1 [1]; High concentration = 1 μM (Table 1)) | Nurr1 activity (luciferase), multiple of 0.1% DMSO control (Nurr1 [1]; Low concentration = 0.01 μM (Table 1)) | Nurr1 activity (luciferase), multiple of 0.1% DMSO control (Nurr1 [1]; Mid concentration = 0.1 μM (Table 1)) | Nurr1 activation (in words) (Nurr1 [1]) | IC50 ([2]; Mus musculus, BV-2 cells, LPS 24 hours, nitrite by Griess reagent, read-out: IC50, inhibition of nitric oxide production (Table 4)) [nM] | Inhibition of nitric oxide production (in words) [2] | Nurr1 activation (in words) (Nurr1 [3]; 0.01 μM) | IC50 [2, 4] [nM] | Nurr1 activation (in words) (Nurr1 [3]; 0.003 μM) | Nurr1 activity (Table 3), relative to control treatment (Nurr1 [3]; 0.003 μM) | Nurr1 activity (Table 3), relative to control treatment (Nurr1 [3]; 0.01 μM) | Nurr1 activation (in words) (Nurr1 [3]; 0.03 μM) | Nurr1 activity (Table 3), relative to control treatment (Nurr1 [3]; 0.03 μM) | Nurr1 activity (Table 3), relative to control treatment (Nurr1 [3]; 0.1 μM) | Nurr1 activity (Table 3), relative to control treatment (Nurr1 [3]; 0.3 μM) | Nurr1 activity (Table 3), relative to control treatment (Nurr1 [3]; 1 μM) | IC50 ([2]; Mus musculus, BV-2, 24 h, read-out: IC50, inhibition of nitric oxide production (Table 5)) [nM]
1 | C=C(C)[C@@]12O[C@@]3(c4ccccc4)O[C@@H]1C1[C@@H]4O[C@]4(CO)[C@@H](O)[C@]4(O)C(=O)C(C)=CC4[C@@]1(O3)[C@H](C)[C@H]2OC(=O)c1ccccc1 (stereo partly drawn) [Formula 2, (2S,3aR,3cS,4aR,5S,5aS,8bR,9R,10R,10aS)-5,5a-dihydroxy-4a-(hydroxymethyl)-7,9-dimethyl-6-oxo-2-phenyl-10a-(prop-1-en-2-yl)-3a,3b,3c,4a,5,5a,8a,9,10,10a-decahydro-6H-2,8b-epoxyoxireno[2″,3″:6′,7′]azuleno[5′,4′:3,4]benzo[1,2-d][1,3]dioxol-10-yl benzoate] | 1.9 | 2.1 | 2.2 | better effect of increasing Nurr1 activity | 60 ± 20 | superior inhibition activity on nitric oxide production | excellent effect of Nurr1 activity |  |  |  |  |  |  |  |  |  | 
2 | C=C(C)[C@@]12O[C@@]3(/C=C/C=C/CCCCC)O[C@@H]1[C@@H]1[C@@H]4O[C@]4(CO)[C@@H](O)[C@]4(O)C(=O)C(C)=C[C@H]4[C@@]1(O3)[C@H](C)[C@H]2OC(C)=O [compound 13, yuanhuadine] |  |  |  | better effect of increasing Nurr1 activity |  |  |  | 1800 | activated Nurr1 | 1.23 ± 0.09 | 1.35 ± 0.28 | significantly activates Nurr1 | *1.47 ± 0.17 | *1.42 ± 0.14 | *1.65 ± 0.2 | **1.47 ± 0.02 | 
3 | CCC/C=C/C=C/C=C/C(=O)O[C@@H]1[C@@H](C)[C@@]2(O)C(C=C(CO)C[C@]3(O)C(=O)C(C)=CC23)C2C(C)(C)[C@@]21OC(C)=O (stereo partly drawn) [compound 16, (4aR,7bS,8R,9R,9aS)-9a-acetoxy-4a,7b-dihydroxy-3-(hydroxymethyl)-1,1,6,8-tetramethyl-5-oxo-1a,1b,4,4a,5,7a,7b,8,9,9a-decahydro-1H-cyclopropa[3,4]benzo[1,2-e]azulen-9-yl (2E,4E,6E)-deca-2,4,6-trienoate] |  |  |  | better effect of increasing Nurr1 activity |  |  |  |  |  |  |  | significantly activates Nurr1 | *1.42 ± 0.15 | *1.68 ± 0.43 | *1.82 ± 0.51 | **1.53 ± 0.07 | 1780
4 | yuanhuatine [compound 14] |  |  |  | better effect of increasing Nurr1 activity |  | better inhibition activity on nitric oxide production |  | 1030 | activated Nurr1 | 1.03 ± 0.15 | 0.94 ± 0.04 | significantly activates Nurr1 | *1.63 ± 0.18 | **1.68 ± 0.11 | **1.62 ± 0.11 | *1.67 ± 0.32 | 
